Key:
[1] = tested on: SARS-CoV-2 D614G strain; assay type: cell-based
[2] = tested on: IAV WSN; assay type: cell-based, influenza A virus

Row | SMILES | reduction of SARS-CoV-2 infection [1] | reduction in viral titre after tenth passage [2] [log] | blocked SARS-CoV-2 infections [1]
1 | O=C(Nc1cc(C(F)(F)F)cc(C(F)(F)F)c1)Nc1cc(C(F)(F)F)cc(C(F)(F)F)c1 [DPUD-1, 1,3-bis(3,5-bis(trifluoromethyl)phenyl)urea] | greater than 99% | > 5 | 
2 | O=C(Nc1ccccc1)Nc1ccccc1 [DPU, 1,3-diphenylurea, reference compound] |  |  | did not show any inhibitory effect
